Where two headings read alike, the source gives them in different places. Where no end group is shown, it is not given here.
Tests used:
[1] = system: LiaRS response in B. subtilis BSF2470; test: LiaRS disk diffusion reporter assay (β-galactosidase, X-Gal); assay type: cell-based, Bacillus subtilis; conditions: 37°C overnight
Protocol: The LiaRS response was determined via disk diffusion as described previously ([Mascher et al., 2004]). Briefly, B. subtilis strain BSF2470 was grown in LB supplemented with erythromycin (1 μg/mL) overnight at 37°C with shaking. A total of 20 μL of overnight culture was mixed with 100 μL of 20 mg/mL X-Gal (dissolved in DMF) and 5 mL of 0.7% soft LB agar then poured onto a 1.5% LB agar base. The plates were allowed to cool and dry at room temperature for 20 min. The desired molecule was either spotted on a filter paper disk and placed on top of the agar or directly spotted on the agar. The following molecules were tested: ampicillin, 0.5 μL on filter disk, 1 μL directly spotted, 100 mg/mL; compound 1771/LtaS-IN-1, 4 μL, 20 mM (dissolved in DMSO); epilancin 15X, 4 μL, 5 mM; vancomycin, 1 μL, 100 mg/mL; nisin, 4 μL, 2 mM; bacitracin, 4 μL on filter disk, 5 μL directly spotted, 100 mg/mL; water, 5 μL; magainin 2, 10 μL, 1 mM; melittin, 10 μL, 1 mM. The plate was incubated at 37°C overnight. After overnight incubation, the plate was imaged. Compound 1771 (CS-0114233) was purchased from ChemScene LLC.
To investigate the effect of epilancin 15X on the cell envelope, we employed the two-component LiaRS reporter system in B. subtilis (lipid II cycle interfering antibiotic response regulator and sensor; [Mascher et al., 2004]). Briefly, the LiaRS assay is a disk diffusion assay used to screen for the ability of compounds to induce β-galactosidase expression in engineered B. subtilis BSF2470 ([Mascher et al., 2004]). Molecules that produce a blue ring around the edge of the zone of growth inhibition are believed to interfere with the lipid II cycle ([Hachmann et al., 2009]). […] The compound 1771, also called LtaS-IN-1, inhibits lipoteichoic acid (LTA) synthesis ([Richter et al., 2013]) and to the best of our knowledge has not been tested in the LiaRS assay.

[2] = system: LiaRS response in B. subtilis BSF2470; conditions: cited from earlier work
Excerpt: To investigate the effect of epilancin 15X on the cell envelope, we employed the two-component LiaRS reporter system in B. subtilis (lipid II cycle interfering antibiotic response regulator and sensor; [Mascher et al., 2004]). Briefly, the LiaRS assay is a disk diffusion assay used to screen for the ability of compounds to induce β-galactosidase expression in engineered B. subtilis BSF2470 ([Mascher et al., 2004]). Molecules that produce a blue ring around the edge of the zone of growth inhibition are believed to interfere with the lipid II cycle ([Hachmann et al., 2009]). Most membrane disrup ...

S. carnosus TM300 [3] = test: MIC determination in 96-well microtiter plate; assay type: cell-based, Staphylococcus carnosus; conditions: BHI, 37°C, 10^5 CFU/mL, OD600 after 18 h
Protocol: (§1) MIC determination was performed in a 96-well microtiter plate as described previously ([Wu et al., 2019]). Sensitive bacterial culture was grown in the appropriate medium (BHI for S. carnosus; LB for B. subtilis) at 37°C overnight. The culture was diluted to 10^5 CFU/mL in medium in each well. Epilancin 15X or its analog was dissolved in water and serially diluted to obtain final concentrations of 20, 10, 5, 2.5, 1.25, 0.625, 0.3125, 0.156, 0.078, 0.039, 0.019, and 0.009 μM. OD600 readings were obtained after 18 h using a Synergy H4 Hybrid Multi-Mode Microplate Reader (BioTeK). Cell-free untreated medium, and untreated cell culture were used as negative controls. The MIC of nisin against B. subtilis BSF2470 was determined following the same methods.

[4] = system: B. subtilis BSF2470 (1A980); test: MIC determination in 96-well microtiter plate; assay type: cell-based, Bacillus subtilis; conditions: LB, 37°C, 10^5 CFU/mL, OD600 after 18 h
Protocol: as §1

S. carnosus TM300 [5] = test: Membrane permeability study with propidium iodide (flow cytometry); assay type: cell-based, Staphylococcus carnosus; conditions: S. carnosus TM300, 20 min exposure, 0.5x, 1x, 4x MIC, n = 3
Protocol: (§2) Cultures of S. carnosus TM300 and B. subtilis BSF2470 were grown to OD600 1.0 and diluted to OD600 0.1 in fresh BHI or LB medium, respectively. The culture was then combined with a final concentration of 25 μM PI (ThermoFisher P3566), 1 mM HEPES, and 1 mM glucose. […] Another two tubes were prepared without antibiotic treatment as controls. The culture was analyzed with a BD Biosciences LSR II flow cytometer for S. carnosus and a BD Biosciences LSRFortessa for B. subtilis using excitation at 488 nm with an argon laser and measurement of emission through a band-pass filter at 695/40 nm. A minimum of 30,000 events were detected for each sample. The experiment was repeated three times, and the mean PI uptake value was determined. The results were calibrated such that the mean PI uptake from the 4x MIC nisin-treated cell culture was set as 100% PI uptake.

B. subtilis BSF2470 = test: as above; assay type: cell-based, Bacillus subtilis; conditions: B. subtilis BSF2470, 20 min exposure, 0.5x, 1x, 4x MIC, n = 3
Protocol: as §2

S. carnosus TM300 [6] = test: Bright field (Airyscan) microscopy; assay type: cell-based, Staphylococcus carnosus; conditions: S. carnosus TM300, 0.5 MIC
S. carnosus TM300 [7] = test: Agar diffusion bioactivity assay with lipids in flanking wells; assay type: cell-based, Staphylococcus carnosus; conditions: S. carnosus TM300 on BHI agar, overnight
Protocol: For agar diffusion antimicrobial activity assays, the autoclaved 1.5% agar was prepared in the appropriate medium and cooled in a 40°C water bath for 15 min. A total of 50 μL overnight culture of the sensitive strain was added to the agar and kept in the water bath. A total of 25 mL seeded agar was poured into a sterile OmniTray (Nunc) and allowed to solidify at room temperature for 30 min. An additional 35 mL of seeded agar was poured over the lower solidified agar layer. A sterile 96-well PCR plate was placed in the molten agar upper layer, and the agar was allowed to solidify at 25°C for 30 min. After sufficient solidification, the 96-well PCR plate was removed. Then 20 μL volume of each peptide was dispensed into the wells. Plates were left at 25°C for 30 min until the wells were dried, and the plates were incubated at 37°C overnight. The antibacterial activity was determined by the presence or absence of growth inhibition.
Figure S5. (A) Zones of growt h inhibition of epilancin 15X a nd nisin A against S. carnosus TM30 0 grown on BHI agar plates. The indicated amounts of antibiotics were placed in the well shown in the center of the zone of inhibition. […]

[8] = Liposome leakage assay using flow cytometry (HaloTag / AF488 ligand); assay type: biochemical; conditions: 1 μM peptide, 37°C, 1 h

CN[C@H](CC(C)C)C(=O)N[C@H]1C(=O)N[C@@H](CC(N)=O)C(=O)N[C@H]2C(=O)N[C@H]3C(=O)N[C@H](C(=O)N[C@H](C(=O)O)c4cc(O)cc(O)c4-c4cc3ccc4O)[C@H](O)c3ccc(c(Cl)c3)Oc3cc2cc(c3O[C@@H]2O[C@H](CO)[C@@H](O)[C@H](O)[C@H]2O[C@H]2C[C@](C)(N)[C@H](O)[C@H](C)O2)Oc2ccc(cc2Cl)[C@H]1O [vancomycin]
LiaRS response (blue ring at the edge of the zone of inhibition) [1]: induce a LiaRS response

polymyxin
LiaRS response ([2]; ref Wex et al., 2021): do not induce a LiaRS response

Bacitracin
LiaRS response (blue ring at the edge of the zone of inhibition) [1]: induce a LiaRS response

tunicamycin
LiaRS response ([2]; B. subtilis, ref Mascher et al., 2004): positive LiaRS response

O=C(COC(=O)Cc1coc2ccc3ccccc3c12)Nc1nnc(-c2ccccc2)o1 [LtaS-IN-1]
LiaRS response (blue ring at the edge of the zone of inhibition) [1]: did not induce a blue zone

melittin
LiaRS response (blue ring at the edge of the zone of inhibition) [1]: did not induce a LiaRS response

CC[C@@]1([C@@H]2O[C@@H]([C@H]3O[C@@](O)(CO)[C@H](C)C[C@@H]3C)C[C@@H]2C)CC[C@H]([C@]2(C)CC[C@]3(C[C@H](O)[C@@H](C)[C@@H]([C@@H](C)[C@@H](OC)[C@H](C)C(=O)O)O3)O2)O1 [monensin]
LiaRS response ([2]; ref Wex et al., 2021): do not induce a LiaRS response

nisin: lantibiotic, lipid II binding pore former, positive control (ITSISLCTPGCKTGALMGCNMKTATCHCSIHVSK; not fully specified (some residues, bridges); cysteine pairing not given here; UniProt P13068 24-57, looked up) [reference compound]
MIC (S. carnosus TM300 [3]): 0.5 µM
MIC [4]: 0.625 µM
PI uptake (membrane disruption) (S. carnosus TM300 [5]): more substantial
PI uptake (membrane disruption) (B. subtilis BSF2470): more substantial
LiaRS response (blue ring at the edge of the zone of inhibition) [1]: induce a LiaRS response
aggregation phenotype of cells (brightfield) (S. carnosus TM300 [6]): Aggregation was not observed
antagonism of bioactivity (zone of growth inhibition) by purified S. aureus LTA (S. carnosus TM300 [7]): not
fluorescence signal (pore formation) ([8]; POPC-cholesterol liposomes with 0.1% lipid II): substantial increase in fluorescence signal
fluorescence signal (pore formation) compared to buffer control ([8]; POPC-cholesterol liposomes without lipid II): no increase in fluorescence signal

magainin 2
LiaRS response (blue ring at the edge of the zone of inhibition) [1]: did not induce a LiaRS response

CC1(C)S[C@@H]2[C@H](NC(=O)[C@H](N)c3ccccc3)C(=O)N2[C@H]1C(=O)O [ampicillin]
LiaRS response (blue ring at the edge of the zone of inhibition) [1]: did not induce a LiaRS response

colistin
LiaRS response ([2]; ref Wex et al., 2021): do not induce a LiaRS response

— article PMC10652874, “Investigation into the mechanism of action of the antimicrobial peptide epilancin 15X” (Frontiers in Microbiology, 2023)
